Assay results reported in patent US20250214991A1 (Oncopia Therapeutics, Inc. d/b/a/ SK Life Science Labs, priority 2022, published 2025).
pIC50: −log10 of the molar value.

Experiments:
[1] = target: CRBN/DDB1 (Homo sapiens (Human), UniProt Q96SW2); experiment: IC50 measurements for binding to CRBN/DDB1 (HTRF); conditions: His tagged CRBN+DDB, Cy5-labeled Thalidomide probe, one hour
Method in brief: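 HTRF competition binding with 2 nM His-tagged CRBN-DDB1 complex, 60 nM Cy5-thalidomide probe and 0.4 nM anti-His Tb cryptate in 50 mM HEPES pH 7.5, 1 mM TCEP, 0.01% Brij-35, 50 mM NaCl, 0.1% BSA. Read after 1 h at room temperature; IC50 from four-parameter dose-response fit.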

[2] = target: IKZF2 (Homo sapiens (Human), UniProt Q96SW2+Q9UKS7); experiment: In vitro IKZF2 HiBit Assay (HEK293T Flp-in-HiBiT cells); type: cell-based; conditions: HEK293T Flp-in-HiBiT cells, 6 hrs incubation; for DC50: read-out: IKZF2 HiBit DC50; for Dmax: HEK-293T, read-out: IKZF2 HiBit Dmax (%)
Sequence of IKZF2 (Q9UKS7 whole entry): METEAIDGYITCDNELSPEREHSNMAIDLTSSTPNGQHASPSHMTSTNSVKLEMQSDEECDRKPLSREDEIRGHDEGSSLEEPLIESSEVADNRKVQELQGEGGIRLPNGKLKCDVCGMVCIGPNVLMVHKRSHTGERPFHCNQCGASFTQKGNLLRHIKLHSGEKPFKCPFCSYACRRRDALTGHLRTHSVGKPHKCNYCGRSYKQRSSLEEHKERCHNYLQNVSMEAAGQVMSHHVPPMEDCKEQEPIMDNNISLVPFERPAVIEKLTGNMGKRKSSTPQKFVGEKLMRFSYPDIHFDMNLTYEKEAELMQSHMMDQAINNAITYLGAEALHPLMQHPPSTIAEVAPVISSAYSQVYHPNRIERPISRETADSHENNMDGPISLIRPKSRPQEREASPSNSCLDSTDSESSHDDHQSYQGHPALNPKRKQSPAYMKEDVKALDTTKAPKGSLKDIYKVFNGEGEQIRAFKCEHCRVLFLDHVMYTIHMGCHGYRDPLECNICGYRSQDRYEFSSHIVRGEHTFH
Sequence of IKZF2 (Q96SW2 whole entry): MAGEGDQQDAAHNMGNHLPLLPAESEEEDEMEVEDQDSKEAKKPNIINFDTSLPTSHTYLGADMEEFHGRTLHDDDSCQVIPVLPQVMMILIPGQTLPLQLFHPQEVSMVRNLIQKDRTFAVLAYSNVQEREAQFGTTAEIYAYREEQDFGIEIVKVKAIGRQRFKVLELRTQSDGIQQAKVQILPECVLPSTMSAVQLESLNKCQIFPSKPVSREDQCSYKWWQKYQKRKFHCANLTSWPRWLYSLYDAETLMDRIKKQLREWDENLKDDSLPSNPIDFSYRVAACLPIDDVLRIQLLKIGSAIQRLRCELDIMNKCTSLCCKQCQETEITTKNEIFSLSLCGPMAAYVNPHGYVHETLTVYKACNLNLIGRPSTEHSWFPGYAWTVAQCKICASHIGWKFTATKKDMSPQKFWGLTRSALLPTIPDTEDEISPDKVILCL
Sequence of IKZF2 (Q16531 2-1140 partner): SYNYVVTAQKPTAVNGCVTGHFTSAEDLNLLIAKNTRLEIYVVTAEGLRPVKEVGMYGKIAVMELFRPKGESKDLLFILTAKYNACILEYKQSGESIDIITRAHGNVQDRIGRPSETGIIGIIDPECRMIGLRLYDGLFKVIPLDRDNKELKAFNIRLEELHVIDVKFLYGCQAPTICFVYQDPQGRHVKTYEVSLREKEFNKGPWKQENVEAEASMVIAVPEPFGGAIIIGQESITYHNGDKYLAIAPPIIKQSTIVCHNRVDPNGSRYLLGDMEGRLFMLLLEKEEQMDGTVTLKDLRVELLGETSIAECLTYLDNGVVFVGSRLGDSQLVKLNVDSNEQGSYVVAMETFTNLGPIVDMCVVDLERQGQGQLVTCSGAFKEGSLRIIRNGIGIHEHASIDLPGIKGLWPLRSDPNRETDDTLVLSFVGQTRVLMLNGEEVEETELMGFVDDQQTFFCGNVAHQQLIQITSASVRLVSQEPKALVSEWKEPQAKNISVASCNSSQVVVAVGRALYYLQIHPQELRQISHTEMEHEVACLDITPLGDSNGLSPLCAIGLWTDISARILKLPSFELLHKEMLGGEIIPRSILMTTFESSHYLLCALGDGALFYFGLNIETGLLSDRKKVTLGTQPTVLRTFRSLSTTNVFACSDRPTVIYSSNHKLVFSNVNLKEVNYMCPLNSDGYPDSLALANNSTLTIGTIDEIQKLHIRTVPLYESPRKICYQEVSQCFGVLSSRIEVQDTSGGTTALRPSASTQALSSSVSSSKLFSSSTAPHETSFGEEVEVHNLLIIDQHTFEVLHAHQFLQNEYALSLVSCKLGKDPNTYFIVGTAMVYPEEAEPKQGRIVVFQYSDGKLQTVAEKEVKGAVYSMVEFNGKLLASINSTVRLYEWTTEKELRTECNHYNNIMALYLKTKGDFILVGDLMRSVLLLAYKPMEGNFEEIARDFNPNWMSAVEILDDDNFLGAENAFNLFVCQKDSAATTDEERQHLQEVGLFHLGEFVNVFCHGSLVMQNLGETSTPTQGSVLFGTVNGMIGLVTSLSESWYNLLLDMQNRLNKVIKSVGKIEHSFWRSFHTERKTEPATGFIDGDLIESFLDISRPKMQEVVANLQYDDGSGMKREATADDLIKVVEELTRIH
Method in brief: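 HEK293T Flp-in cells carrying an endogenous N-terminal HiBiT tag on IKZF2 were exposed to compound for 6 h at 0.1% DMSO. The dilution series was 11 doses at 3-fold, diluted from 1 mM. Nano-Glo HiBiT lytic luminescence, normalized to DMSO, gave DC50 for 50% degradation and Dmax across the concentration range, both reported in letter bins.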

[3] = target: IKZF1 (Homo sapiens (Human), UniProt Q13422+Q96SW2); experiment: In vitro IKZF1 HiBit Assay (HEK293T Flp-in-HiBiT-IKZF1 stable cell line); type: cell-based; conditions: HEK293T Flp-in-HiBiT-IKZF1 stable cell line, 6 hrs incubation; for DC50: read-out: IKZF1 HiBit DC50; for Dmax: HEK-293T, read-out: IKZF1 HiBit Dmax (%)
Sequence of IKZF1 (Q13422 whole entry): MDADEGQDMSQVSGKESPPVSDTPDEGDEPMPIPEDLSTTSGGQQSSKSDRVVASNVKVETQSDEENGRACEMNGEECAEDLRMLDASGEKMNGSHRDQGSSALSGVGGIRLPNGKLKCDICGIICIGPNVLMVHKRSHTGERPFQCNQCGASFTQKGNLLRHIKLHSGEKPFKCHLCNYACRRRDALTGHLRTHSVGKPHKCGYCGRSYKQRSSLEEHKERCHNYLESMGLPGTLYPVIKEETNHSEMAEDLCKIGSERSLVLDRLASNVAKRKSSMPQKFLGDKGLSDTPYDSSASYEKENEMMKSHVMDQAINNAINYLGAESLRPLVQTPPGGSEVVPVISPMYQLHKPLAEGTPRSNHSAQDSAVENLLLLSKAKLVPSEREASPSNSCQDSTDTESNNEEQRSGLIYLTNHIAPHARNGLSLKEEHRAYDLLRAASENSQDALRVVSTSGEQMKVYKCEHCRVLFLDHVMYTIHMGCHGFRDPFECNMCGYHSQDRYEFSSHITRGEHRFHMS
Sequence of IKZF1 (Q96SW2 whole entry): as the sequence (Q96SW2 whole entry) above
Sequence of IKZF1 (Q16531 2-1140 partner): as the sequence (Q16531 2-1140 partner) above
Method in brief: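 HEK293T Flp-in cells carrying N-terminal HiBiT-tagged IKZF1 were exposed to compound (0.1% DMSO) for 6 h at 3000 cells/well. HiBiT luminescence was read after lytic LgBiT detection. DC50 and Dmax were taken from DMSO-normalized dose-response curves.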

Sequence of CRBN/DDB1 (Q96SW2 whole entry, species assumed): as the sequence (Q96SW2 whole entry) above
Sequence of CRBN/DDB1 (Q16531 whole entry partner, species assumed): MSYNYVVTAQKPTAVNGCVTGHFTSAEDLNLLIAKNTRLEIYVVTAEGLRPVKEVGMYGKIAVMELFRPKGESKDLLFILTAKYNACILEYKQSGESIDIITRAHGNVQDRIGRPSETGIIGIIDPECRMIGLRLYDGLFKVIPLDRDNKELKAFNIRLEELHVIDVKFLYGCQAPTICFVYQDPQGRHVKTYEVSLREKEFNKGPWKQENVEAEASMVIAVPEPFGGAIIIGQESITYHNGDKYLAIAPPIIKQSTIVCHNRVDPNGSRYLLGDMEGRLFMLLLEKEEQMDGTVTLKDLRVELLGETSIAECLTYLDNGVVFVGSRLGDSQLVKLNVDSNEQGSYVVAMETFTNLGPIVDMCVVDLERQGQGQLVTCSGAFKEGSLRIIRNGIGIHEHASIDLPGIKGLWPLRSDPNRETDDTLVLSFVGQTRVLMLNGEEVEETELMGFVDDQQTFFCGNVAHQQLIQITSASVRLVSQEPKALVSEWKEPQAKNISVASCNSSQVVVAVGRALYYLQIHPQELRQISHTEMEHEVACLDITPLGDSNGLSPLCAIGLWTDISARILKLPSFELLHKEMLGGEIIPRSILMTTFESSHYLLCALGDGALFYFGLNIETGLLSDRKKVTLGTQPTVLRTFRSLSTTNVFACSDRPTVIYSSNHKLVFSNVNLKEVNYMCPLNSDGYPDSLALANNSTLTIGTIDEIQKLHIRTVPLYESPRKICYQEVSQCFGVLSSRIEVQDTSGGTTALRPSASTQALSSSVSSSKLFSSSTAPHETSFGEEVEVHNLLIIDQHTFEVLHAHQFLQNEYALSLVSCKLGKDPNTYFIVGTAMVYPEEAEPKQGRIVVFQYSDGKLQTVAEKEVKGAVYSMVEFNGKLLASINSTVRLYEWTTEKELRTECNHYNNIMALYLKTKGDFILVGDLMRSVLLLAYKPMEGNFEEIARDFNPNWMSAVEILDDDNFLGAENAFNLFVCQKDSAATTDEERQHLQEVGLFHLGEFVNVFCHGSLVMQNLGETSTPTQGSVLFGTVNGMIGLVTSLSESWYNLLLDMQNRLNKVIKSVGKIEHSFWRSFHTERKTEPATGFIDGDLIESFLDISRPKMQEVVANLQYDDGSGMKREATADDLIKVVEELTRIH

| SMILES | pIC50 [1] | DC50 [2] [nM] | Dmax [2] [%] | DC50 [3] [nM] | Dmax [3] [%] |
| --- | --- | --- | --- | --- | --- |
| CN(C)C1CCN(Cc2cc(-c3ccc4c(c3)CN(C3CCC(=O)NC3=O)C4=O)nc3c2ccn3C2COC2)CC1 (stereo not drawn) [Example 190, 3-(5-(4-((4-(dimethylamino)piperidin-1-yl)methyl)-1-(oxetan-3-yl)-1H-pyrrolo[2,3-b]pyridin-6-yl)-1-oxoisoindolin-2-yl) piperidine-2,6-dione] | 6.30 to 7.00 | 10 to 100 | 40 to 60 | > 10000 | < 20 |
| CN(C)c1n[nH]c2c(CN3CCCC3)cc(-c3ccc4c(c3)CN(C3CCC(=O)NC3=O)C4=O)nc12 (stereo not drawn) [Example 179, 3-(5-(3-(dimethylamino)-7-(pyrrolidin-1-ylmethyl)-1H-pyrazolo[4,3-b]pyridin-5-yl)-1-oxoisoindolin-2-yl) piperidine-2,6-dione] | 5.00 to 5.30 | < 1 | > 80 | 10 to 100 | 40 to 60 |
| CN1CC(n2ccc3c(CN4CCCC4)cc(-c4ccc5c(c4)CN(C4CCC(=O)NC4=O)C5=O)nc32)C1 (stereo not drawn) [Example 169, 3-(5-(1-(1-methylazetidin-3-yl)-4-(pyrrolidin-1-ylmethyl)-1H-pyrrolo[2,3-b]pyridin-6-yl)-1-oxoisoindolin-2-yl) piperidine-2,6-dione] | > 7.00 | 1 to 10 | > 80 | 10 to 100 | 40 to 60 |
| Cn1ccc2c(CN3CCC3c3ccccc3)cc(-c3ccc4c(c3)CN(C3CCC(=O)NC3=O)C4=O)nc21 (stereo not drawn) [Example 71, 3-(5-(1-methyl-4-((2-phenylazetidin-1-yl)methyl)-1H-pyrrolo[2,3-b]pyridin-6-yl)-1-oxoisoindolin-2-yl) piperidine-2,6-dione] | 6.30 to 7.00 | 1 to 10 | > 80 | > 10000 | 20 to 40 |
| Cn1ccc2c(N3CCCC3)cc(-c3ccc4c(c3)CN(C3CCC(=O)NC3=O)C4=O)nc21 (stereo not drawn) [Example 114, 3-(5-(1-methyl-4-(pyrrolidin-1-yl)-1H-pyrrolo[2,3-b]pyridin-6-yl)-1-oxoisoindolin-2-yl) piperidine-2,6-dione] | 5.30 to 6.00 | 10 to 100 | 20 to 40 | > 10000 | < 20 |
| Cn1ccc2c(CN3CCCCC3)cc(-c3ccc4c(c3)CN(C3CCC(=O)NC3=O)C4=O)nc21 (stereo not drawn) [Example 57, 3-(5-(1-methyl-4-(piperidin-1-ylmethyl)-1H-pyrrolo[2,3-b]pyridin-6-yl)-1-oxoisoindolin-2-yl) piperidine-2,6-dione] | 6.30 to 7.00 | < 1 | > 80 | > 10000 | 20 to 40 |
| Cn1ccc2c(C3CCCCN3)cc(-c3ccc4c(c3)CN([C@H]3CCC(=O)NC3=O)C4=O)nc21 (stereo partly drawn) [Example 231, (3S)-3-(5-(1-methyl-4-(piperidin-2-yl)-1H-pyrrolo[2,3-b]pyridin-6-yl)-1-oxoisoindolin-2-yl) piperidine-2,6-dione] | 6.30 to 7.00 | 10 to 100 | 40 to 60 | 1 to 10 | 20 to 40 |
| O=C1CCC(N2Cc3cc(-c4cc(CN5CCCC5)c5c(n4)CCC5)ccc3C2=O)C(=O)N1 (stereo not drawn) [Example 80, 3-(1-oxo-5-(4-(pyrrolidin-1-ylmethyl)-6,7-dihydro-5H-cyclopenta[b]pyridin-2-yl)isoindolin-2-yl) piperidine-2,6-dione] | 6.30 to 7.00 | < 1 | > 80 |  | 20 to 40 |
| Cn1ccc2nc(-c3ccc4c(c3)CN(C3CCC(=O)NC3=O)C4=O)cc(CN3CCC3)c21 (stereo not drawn) [Example 110, 3-(5-(7-(azetidin-1-ylmethyl)-1-methyl-1H-pyrrolo[3,2-b]pyridin-5-yl)-1-oxoisoindolin-2-yl) piperidine-2,6-dione] | 6.00 to 6.30 | 1 to 10 | > 80 | > 10000 | < 20 |
| O=C1CCC(N2Cc3cc(-c4cc(CN5CC(O)C5)c5cc[nH]c5n4)ccc3C2=O)C(=O)N1 (stereo not drawn) [Example 111, 3-(5-(4-((3-hydroxyazetidin-1-yl)methyl)-1H-pyrrolo[2,3-b]pyridin-6-yl)-1-oxoisoindolin-2-yl) piperidine-2,6-dione] | 6.30 to 7.00 | 10 to 100 | 60 to 80 | > 10000 | < 20 |
| CC(C)n1ccc2nc(-c3ccc4c(c3)CN(C3CCC(=O)NC3=O)C4=O)cc(CN3CCCC3)c21 (stereo not drawn) [Example 172, 3-(5-(1-isopropyl-7-(pyrrolidin-1-ylmethyl)-1H-pyrrolo[3,2-b]pyridin-5-yl)-1-oxoisoindolin-2-yl) piperidine-2,6-dione] | 5.30 to 6.00 | 10 to 100 | 60 to 80 | 100 to 1000 | 20 to 40 |
| CN(C)C(=O)C1CCN(Cc2cc(-c3ccc4c(c3)CN(C3CCC(=O)NC3=O)C4=O)nc3c2ccn3C)CC1 (stereo not drawn) [Example 92, 1-((6-(2-(2,6-dioxopiperidin-3-yl)-1-oxoisoindolin-5-yl)-1-methyl-1H-pyrrolo[2,3-b]pyridin-4-yl)methyl)-N,N-dimethylpiperidine-4-carboxamide] | > 7.00 | 1 to 10 | > 80 | > 10000 | < 20 |
| COC1CN(Cc2cc(-c3ccc4c(c3)CN(C3CCC(=O)NC3=O)C4=O)nc3c2ccn3C)C1 (stereo not drawn) [Example 85, 3-(5-(4-((3-methoxyazetidin-1-yl)methyl)-1-methyl-1H-pyrrolo[2,3-b]pyridin-6-yl)-1-oxoisoindolin-2-yl) piperidine-2,6-dione] | 6.30 to 7.00 | 1 to 10 | > 80 | 1 to 10 | 20 to 40 |
| Cn1ccc2c(CN3CCC(F)CC3)cc(-c3ccc4c(c3)CN(C3CCC(=O)NC3=O)C4=O)nc21 (stereo not drawn) [Example 301, 3-(5-(4-((4-fluoropiperidin-1-yl)methyl)-1-methyl-1H-pyrrolo[2,3-b]pyridin-6-yl)-1-oxoisoindolin-2-yl) piperidine-2,6-dione] | 5.30 to 6.00 | < 1 | > 80 | 10 to 100 | 20 to 40 |
| O=C1CCC(N2Cc3cc(-c4cc(CN5CCC5)c5cc[nH]c5n4)ccc3C2=O)C(=O)N1 (stereo not drawn) [Example 84, 3-(5-(4-(azetidin-1-ylmethyl)-1H-pyrrolo[2,3-b]pyridin-6-yl)-1-oxoisoindolin-2-yl) piperidine-2,6-dione] | > 7.00 | 1 to 10 | > 80 | 10 to 100 | 20 to 40 |
| Cn1ccc2c(CN3CCCC3)cc(-c3cc4c(cc3Cl)C(=O)N(C3CCC(=O)NC3=O)C4)nc21 (stereo not drawn) [Example 83, 3-(6-chloro-5-(1-methyl-4-(pyrrolidin-1-ylmethyl)-1H-pyrrolo[2,3-b]pyridin-6-yl)-1-oxoisoindolin-2-yl) piperidine-2,6-dione] | 5.30 to 6.00 | 1 to 10 | > 80 | > 10000 | < 20 |
| O=C1CCC(N2Cc3cc(-c4cc(CN5CC6COCC(C6)C5)c5ccn(C6COC6)c5n4)ccc3C2=O)C(=O)N1 (stereo not drawn) [Example 191, 3-(5-(4-((3-oxa-7-azabicyclo[3.3.1]nonan-7-yl)methyl)-1-(oxetan-3-yl)-1H-pyrrolo[2,3-b]pyridin-6-yl)-1-oxoisoindolin-2-yl) piperidine-2,6-dione] | 5.30 to 6.00 | 1 to 10 | 60 to 80 | > 10000 | < 20 |
| Cn1ccc2c(CN3CCC(F)C3)cc(-c3ccc4c(c3)CN(C3CCC(=O)NC3=O)C4=O)nc21 (stereo not drawn) [Example 304, 3-(5-(4-((3-fluoropyrrolidin-1-yl)methyl)-1-methyl-1H-pyrrolo[2,3-b]pyridin-6-yl)-1-oxoisoindolin-2-yl) piperidine-2,6-dione] | 5.30 to 6.00 | 1 to 10 | > 80 | > 10000 | < 20 |
| Cn1ccc2c(CN3CCC(CO)C3)cc(-c3ccc4c(c3)CN(C3CCC(=O)NC3=O)C4=O)nc21 (stereo not drawn) [Example 96, 3-(5-(4-((3-(hydroxymethyl)pyrrolidin-1-yl)methyl)-1-methyl-1H-pyrrolo[2,3-b]pyridin-6-yl)-1-oxoisoindolin-2-yl) piperidine-2,6-dione] | 6.30 to 7.00 | 1 to 10 | > 80 | 10 to 100 | 20 to 40 |
| O=C1CCC(N2Cc3cc(-c4cc(CN5CCCC5)c5ccn(C6CCOCC6)c5n4)ccc3C2=O)C(=O)N1 (stereo not drawn) [Example 171, 3-(1-oxo-5-(4-(pyrrolidin-1-ylmethyl)-1-(tetrahydro-2H-pyran-4-yl)-1H-pyrrolo[2,3-b]pyridin-6-yl)isoindolin-2-yl) piperidine-2,6-dione] | 6.30 to 7.00 | 1 to 10 | 60 to 80 | > 10000 | < 20 |
